Results as given in ChEMBL document CHEMBL1201862, “PubChem BioAssay data set” (2004).
Activity calls are given as the source filed them.

Columns and labels:
[1] = biological target: T1, Mannose-6-phosphate isomerase (Homo sapiens, UniProt P34949); test: inhibitors of human PMI, primary screen, biochemical, fluorescence intensity, coupled assay (AID 1209)
T1 sequence (P34949 whole entry): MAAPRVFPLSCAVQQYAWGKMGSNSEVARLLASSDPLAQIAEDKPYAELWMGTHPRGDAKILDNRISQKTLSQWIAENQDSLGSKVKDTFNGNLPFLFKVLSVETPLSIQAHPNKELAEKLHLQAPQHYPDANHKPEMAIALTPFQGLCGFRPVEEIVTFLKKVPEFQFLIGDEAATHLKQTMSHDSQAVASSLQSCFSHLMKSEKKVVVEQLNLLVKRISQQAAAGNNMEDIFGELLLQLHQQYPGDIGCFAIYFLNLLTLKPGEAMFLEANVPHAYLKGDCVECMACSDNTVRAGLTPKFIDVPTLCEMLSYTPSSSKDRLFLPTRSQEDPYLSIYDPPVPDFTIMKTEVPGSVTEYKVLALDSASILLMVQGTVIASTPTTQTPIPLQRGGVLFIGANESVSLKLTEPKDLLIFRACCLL

[2] = biological target: T1, Mannose-6-phosphate isomerase; test: human PMI inhibitors, high substrate, primary screen, biochemical, fluorescence intensity, high mannose 6-phosphate (AID 1220)
[3] = biological target: Glucose-6-phosphate 1-dehydrogenase (Homo sapiens, UniProt P11413); test: human G6PD enzyme inhibitors, dose response, selectivity assay for P. falciparum G6PD inhibitor project, biochemical, fluorescence (AID 504792); assay type: functional
[4] = THP-1 cell cytotoxicity, dose response, cytotoxicity control for non-replicating M. tuberculosis project (AID 489025); assay type: functional
[5] = Vero E6 cell cytotoxicity, dose response, cytotoxicity control for non-replicating M. tuberculosis project, secondary assay (AID 492998); assay type: functional, VeroE6; conditions: Vero C1008
Nonstructural protein 1 = Nonstructural protein 1 (Influenza A virus, UniProt Q194T2); assay type: functional, Influenza A virus (A/California/07/2009(H1N1))
cells = assay type: functional
[6] = biological target: DNA dC->dU-editing enzyme APOBEC-3A (Homo sapiens, UniProt P31941); test: Dose Response confirmation of small molecule APOBEC3A DNA Deaminase Inhibitors via a fluorescence-based single-stranded DNA deaminase assay. [Related pubchem assays (depositor defined):AID493011, AID493024]; assay type: functional
[7] = biological target: DNA dC->dU-editing enzyme APOBEC-3G (Homo sapiens, UniProt Q9HC16); assay type: functional;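 note: Dose-response counterscreen measuring inhibition of APOBEC3G DNA deaminase activity, run while confirming APOBEC3A inhibitors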
HEK293 [8] = test: NOD1 signaling inhibitors, primary screen, cell-based, luminescence, uHTS (AID 1578); assay type: functional; conditions: Homo sapiens
HEK293 [9] = test: cells; assay type: functional, cell-based; conditions: Homo sapiens
HEK293 [10] = test: cells; assay type: functional, cell-based; conditions: Homo sapiens; remark: listed apart in the source
[11] = biological target: Nucleotide-binding oligomerization domain-containing protein 2 (Homo sapiens, UniProt Q9HC29); test: NOD2 signaling inhibitors, cell-based, luminescence, uHTS, HEK293 (AID 1566); assay type: functional
HEK293 [12] = test: NOD2 signaling inhibitors in MDP-stimulated cells, cell-based, uHTS, luminescence (AID 2001); assay type: functional; conditions: Homo sapiens
HEK293 [13] = test: cells; assay type: functional, cell-based; conditions: Homo sapiens; remark: listed apart in the source
[14] = biological target: T2, Microphthalmia-associated transcription factor (Homo sapiens, UniProt O75030); test: TRPM1 promoter luciferase signal decrease, dose response, MITF inhibitor project, cell-based, SK-MEL-5, cherry-picked, set 3 (AID 493073); assay type: functional
T2 sequence (O75030 whole entry): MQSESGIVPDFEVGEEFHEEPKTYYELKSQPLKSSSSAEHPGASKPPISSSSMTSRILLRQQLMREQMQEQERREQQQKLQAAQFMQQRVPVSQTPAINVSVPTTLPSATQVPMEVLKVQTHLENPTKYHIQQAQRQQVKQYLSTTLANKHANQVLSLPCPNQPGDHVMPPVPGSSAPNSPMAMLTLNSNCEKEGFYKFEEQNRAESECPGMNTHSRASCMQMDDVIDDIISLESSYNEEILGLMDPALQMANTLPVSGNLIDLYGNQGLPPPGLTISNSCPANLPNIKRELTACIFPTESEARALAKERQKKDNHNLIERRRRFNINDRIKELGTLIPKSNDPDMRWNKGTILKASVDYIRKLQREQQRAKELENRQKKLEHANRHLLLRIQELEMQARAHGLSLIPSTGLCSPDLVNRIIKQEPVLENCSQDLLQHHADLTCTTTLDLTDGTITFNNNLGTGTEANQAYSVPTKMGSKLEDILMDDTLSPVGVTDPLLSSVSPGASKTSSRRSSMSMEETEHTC

[15] = biological target: T3, Replicative DNA helicase DnaB (Mycobacterium tuberculosis, UniProt P9WMR3); test: DnaB intein splicing inhibitors, dose response, biochemical, cell-free fluorescence (AID 449749); assay type: functional
T3 sequence (P9WMR3 whole entry): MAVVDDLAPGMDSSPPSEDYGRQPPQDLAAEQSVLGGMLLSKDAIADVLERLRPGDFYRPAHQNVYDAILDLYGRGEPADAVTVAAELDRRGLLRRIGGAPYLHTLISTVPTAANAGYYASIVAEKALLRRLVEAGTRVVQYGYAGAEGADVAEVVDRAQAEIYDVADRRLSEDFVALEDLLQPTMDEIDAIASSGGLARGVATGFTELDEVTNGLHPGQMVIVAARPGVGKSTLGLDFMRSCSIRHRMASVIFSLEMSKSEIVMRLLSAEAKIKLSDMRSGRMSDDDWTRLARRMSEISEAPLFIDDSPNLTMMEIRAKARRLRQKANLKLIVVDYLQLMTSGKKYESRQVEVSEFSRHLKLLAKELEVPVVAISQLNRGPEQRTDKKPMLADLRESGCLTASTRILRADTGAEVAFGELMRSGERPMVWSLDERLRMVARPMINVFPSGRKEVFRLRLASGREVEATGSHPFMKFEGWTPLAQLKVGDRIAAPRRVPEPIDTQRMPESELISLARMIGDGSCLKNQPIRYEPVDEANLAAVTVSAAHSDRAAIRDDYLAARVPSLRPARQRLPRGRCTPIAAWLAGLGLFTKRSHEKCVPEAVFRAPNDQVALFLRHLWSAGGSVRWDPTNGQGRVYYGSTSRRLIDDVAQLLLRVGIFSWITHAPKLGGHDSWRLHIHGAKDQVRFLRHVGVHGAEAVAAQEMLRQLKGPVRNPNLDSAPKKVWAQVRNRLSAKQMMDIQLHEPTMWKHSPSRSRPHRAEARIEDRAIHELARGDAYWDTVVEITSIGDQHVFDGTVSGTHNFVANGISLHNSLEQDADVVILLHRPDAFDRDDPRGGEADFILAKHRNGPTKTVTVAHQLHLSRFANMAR

Protein RecA = biological target: T4, Protein RecA (Mycobacterium tuberculosis, UniProt P9WHJ3); test: Fluorescence Cell-Free Homogeneous Dose Retest to Identify Inhibitors of RecA-Intein Splicing Activity. [Related pubchem assays (depositor defined):AID2097, AID2223, AID489010, AID492950]; assay type: functional
T4 sequence (P9WHJ3 whole entry): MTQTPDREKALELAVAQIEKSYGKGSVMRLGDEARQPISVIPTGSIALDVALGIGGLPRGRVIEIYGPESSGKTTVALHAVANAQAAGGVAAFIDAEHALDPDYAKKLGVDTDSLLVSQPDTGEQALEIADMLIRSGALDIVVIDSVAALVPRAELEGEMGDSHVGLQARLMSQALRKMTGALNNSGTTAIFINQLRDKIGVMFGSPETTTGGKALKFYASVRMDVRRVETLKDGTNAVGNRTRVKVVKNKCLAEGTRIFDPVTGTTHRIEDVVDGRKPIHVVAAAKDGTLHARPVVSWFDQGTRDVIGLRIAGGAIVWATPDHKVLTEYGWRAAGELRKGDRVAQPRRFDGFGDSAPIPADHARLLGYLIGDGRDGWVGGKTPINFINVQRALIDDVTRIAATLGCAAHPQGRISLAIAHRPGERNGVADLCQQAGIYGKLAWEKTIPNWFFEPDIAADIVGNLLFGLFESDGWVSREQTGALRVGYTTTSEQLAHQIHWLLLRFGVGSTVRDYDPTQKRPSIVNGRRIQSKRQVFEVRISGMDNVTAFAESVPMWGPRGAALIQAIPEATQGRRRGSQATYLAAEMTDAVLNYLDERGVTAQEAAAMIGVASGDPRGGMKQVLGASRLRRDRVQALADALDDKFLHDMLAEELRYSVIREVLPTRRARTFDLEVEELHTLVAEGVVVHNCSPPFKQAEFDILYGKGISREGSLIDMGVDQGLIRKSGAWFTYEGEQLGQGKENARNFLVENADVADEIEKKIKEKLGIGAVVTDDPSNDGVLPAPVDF

DNA dC->dU-editing enzyme APOBEC-3A, sequence (P31941 whole entry): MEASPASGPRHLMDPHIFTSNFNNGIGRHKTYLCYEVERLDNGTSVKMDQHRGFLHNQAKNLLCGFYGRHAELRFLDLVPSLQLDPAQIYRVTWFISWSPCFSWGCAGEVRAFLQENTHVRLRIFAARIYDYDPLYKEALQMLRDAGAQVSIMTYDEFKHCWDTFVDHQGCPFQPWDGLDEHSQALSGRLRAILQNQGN
DNA dC->dU-editing enzyme APOBEC-3G, sequence (Q9HC16 whole entry): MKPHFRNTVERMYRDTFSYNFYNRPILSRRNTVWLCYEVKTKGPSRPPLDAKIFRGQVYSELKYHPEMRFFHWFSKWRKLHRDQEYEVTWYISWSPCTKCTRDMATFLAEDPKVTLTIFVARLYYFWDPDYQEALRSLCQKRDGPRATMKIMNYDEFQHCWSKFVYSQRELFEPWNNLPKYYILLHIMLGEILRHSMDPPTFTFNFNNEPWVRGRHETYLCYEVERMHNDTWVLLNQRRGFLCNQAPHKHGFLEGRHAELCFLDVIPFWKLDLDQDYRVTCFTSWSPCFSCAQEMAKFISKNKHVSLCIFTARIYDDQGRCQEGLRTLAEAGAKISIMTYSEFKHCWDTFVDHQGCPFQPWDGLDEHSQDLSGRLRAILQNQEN
Glucose-6-phosphate 1-dehydrogenase, sequence (P11413 whole entry): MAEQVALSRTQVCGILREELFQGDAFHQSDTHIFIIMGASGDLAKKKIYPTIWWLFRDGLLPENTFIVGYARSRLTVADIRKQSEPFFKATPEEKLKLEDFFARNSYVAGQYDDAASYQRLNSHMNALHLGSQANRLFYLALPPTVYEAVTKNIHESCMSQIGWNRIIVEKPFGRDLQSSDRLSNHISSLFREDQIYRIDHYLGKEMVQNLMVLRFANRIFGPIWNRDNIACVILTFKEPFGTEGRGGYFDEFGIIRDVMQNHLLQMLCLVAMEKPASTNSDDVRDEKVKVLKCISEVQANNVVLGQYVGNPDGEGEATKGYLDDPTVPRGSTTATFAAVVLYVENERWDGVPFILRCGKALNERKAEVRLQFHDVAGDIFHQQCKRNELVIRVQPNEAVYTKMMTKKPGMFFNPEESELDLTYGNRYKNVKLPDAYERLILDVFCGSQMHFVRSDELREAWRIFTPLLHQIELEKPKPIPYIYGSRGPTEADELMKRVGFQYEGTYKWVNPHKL
Nonstructural protein 1, sequence (Q194T2 whole entry): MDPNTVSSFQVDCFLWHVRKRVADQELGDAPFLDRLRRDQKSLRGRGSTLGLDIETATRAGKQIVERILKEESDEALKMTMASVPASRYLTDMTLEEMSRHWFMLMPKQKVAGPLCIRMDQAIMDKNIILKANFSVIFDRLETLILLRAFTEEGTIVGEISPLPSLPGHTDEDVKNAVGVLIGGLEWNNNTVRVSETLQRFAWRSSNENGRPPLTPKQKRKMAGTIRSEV
Nucleotide-binding oligomerization domain-containing protein 2, sequence (Q9HC29 whole entry, the tested form may be a part): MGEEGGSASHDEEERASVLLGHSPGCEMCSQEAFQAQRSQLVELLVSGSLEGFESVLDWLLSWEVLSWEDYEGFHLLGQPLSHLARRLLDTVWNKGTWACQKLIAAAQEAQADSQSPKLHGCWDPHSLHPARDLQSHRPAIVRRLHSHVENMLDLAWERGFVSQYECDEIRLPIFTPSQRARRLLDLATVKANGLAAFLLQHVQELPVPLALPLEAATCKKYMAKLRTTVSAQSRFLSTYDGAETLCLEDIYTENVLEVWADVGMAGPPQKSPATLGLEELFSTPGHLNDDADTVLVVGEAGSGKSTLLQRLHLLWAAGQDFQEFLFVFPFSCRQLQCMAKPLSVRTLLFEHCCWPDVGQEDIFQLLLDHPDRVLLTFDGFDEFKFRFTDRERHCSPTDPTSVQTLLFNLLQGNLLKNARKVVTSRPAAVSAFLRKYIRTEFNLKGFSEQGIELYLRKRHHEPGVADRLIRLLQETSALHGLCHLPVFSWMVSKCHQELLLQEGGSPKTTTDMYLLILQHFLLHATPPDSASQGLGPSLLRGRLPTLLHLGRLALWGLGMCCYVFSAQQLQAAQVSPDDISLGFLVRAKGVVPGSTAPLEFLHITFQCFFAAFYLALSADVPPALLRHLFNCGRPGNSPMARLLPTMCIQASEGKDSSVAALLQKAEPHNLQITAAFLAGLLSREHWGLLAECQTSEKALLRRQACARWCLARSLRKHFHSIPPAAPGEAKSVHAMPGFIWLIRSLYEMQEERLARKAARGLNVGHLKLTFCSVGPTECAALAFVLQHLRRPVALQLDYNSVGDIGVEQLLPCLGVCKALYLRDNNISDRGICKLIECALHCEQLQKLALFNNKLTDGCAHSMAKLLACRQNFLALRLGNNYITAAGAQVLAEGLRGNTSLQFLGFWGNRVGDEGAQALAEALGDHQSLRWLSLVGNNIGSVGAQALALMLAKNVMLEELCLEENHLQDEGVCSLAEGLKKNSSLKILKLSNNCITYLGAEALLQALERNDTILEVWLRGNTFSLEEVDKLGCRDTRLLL

With C/[N+]([O-])=C\c1ccc2cccc(O)c2n1 the IC50 [1] was 16.4 µM (active), the IC50 [2] was 11.8 µM (active) and the IC50 [3] was > 80 µM (inactive). The CC50 [4] was 35 µM (active), the CC50 [5] was 15.6 µM (active) and the IC50 (Nonstructural protein 1) was 1.68 µM (active). For the same molecule, the IC50 (cells) was 11.6 µM (active).
With COc1ccc(N(CC(=O)NCCSc2ccc(C)cc2)S(=O)(=O)c2ccccc2)c(OC)c1 the IC50 [6] was 10.9 µM (active) and the IC50 [7] was 9.82 µM (active).
In the case of O=C(CCl)N1N=C(c2ccco2)CC1c1cccs1 (stereo not given), the EC50 (HEK293 [8]) is reported as 7.24 µM (active), the IC50 (HEK293 [9]) is reported as 5.32 µM (active) and the IC50 (HEK293 [10]) is reported as > 20 µM (inactive). For the same molecule, the EC50 [11] was 16.7 µM (active), the IC50 (HEK293 [12]) was 4.77 µM (active) and the IC50 (HEK293 [13]) was > 20 µM (inactive). The AC50 [14] was 7.84 µM (active), the AC50 [15] was 92.5 µM (active) and the EC50 (Protein RecA) was 2.16 µM (active).
In the case of Cn1c(-[n+]2c(-c3ccccc3)cc(-c3ccccc3)cc2-c2ccccc2)nc2cc([N+](=O)[O-])ccc21, the IC50 [6] is reported as 19.1 µM (active) and the IC50 [7] is reported as 22.7 µM (active).
